20 molecules from patent US20250230147A1, “LACTAMS AS CBL-B INHIBITORS” (Genentech, Inc., priority 2021, published 2025) can be followed below.

Counter-ions that a name gives are not always drawn.

In one assay the target is c-Cbl (Homo sapiens (Human), UniProt P22681). In words: C-Cbl LCK Ub TR-FRET assay (c-cbl Lck HTRF). The assay is classed as biochemical. To be noted: for (fold-selectivity): C-cbl Lck HTRF IC50 relative to Cbl-b Lck HTRF IC50. The method in brief:
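After the ubiquitination reaction, detection mixture was added and plates incubated 20 min at room temperature before reading. IC50 values were calculated with wells lacking LCK as the low control and DMSO as the high control.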
A general note: In TR-FRET formats the signal depends on donor and acceptor labels being close together.

A further assay addresses Cbl-b (Homo sapiens (Human), UniProt Q13191). As to the kind of experiment: Cbl-b LCK Ub TR-FRET assay (Cbl-b Lck HTRF). The format is biochemical. The gist of the method: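 TR-FRET (340 nm excitation, 615/665 nm emission) read after adding HA-ubiquitin–UBE2D2 thioester, anti-HA-D2 and streptavidin-Eu. Beforehand, compounds incubated 60 min with biotinylated Cbl-b, then 90 min with His-LCK and ATP (1 mM in 2× mix); IC50 from 10 concentrations, DMSO high and no-LCK low controls.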

c-Cbl, sequence (P22681 47-435): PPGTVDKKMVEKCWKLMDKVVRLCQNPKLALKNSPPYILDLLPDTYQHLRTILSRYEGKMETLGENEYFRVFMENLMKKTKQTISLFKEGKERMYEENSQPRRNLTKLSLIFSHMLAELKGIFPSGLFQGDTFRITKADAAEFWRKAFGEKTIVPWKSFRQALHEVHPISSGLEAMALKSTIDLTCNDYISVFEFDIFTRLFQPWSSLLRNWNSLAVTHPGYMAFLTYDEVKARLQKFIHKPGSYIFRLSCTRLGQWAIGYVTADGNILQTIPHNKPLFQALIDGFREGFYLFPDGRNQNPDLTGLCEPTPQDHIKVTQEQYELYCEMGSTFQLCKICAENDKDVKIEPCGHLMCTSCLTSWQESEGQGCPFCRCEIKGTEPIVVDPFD
Cbl-b, sequence (Q13191 40-426): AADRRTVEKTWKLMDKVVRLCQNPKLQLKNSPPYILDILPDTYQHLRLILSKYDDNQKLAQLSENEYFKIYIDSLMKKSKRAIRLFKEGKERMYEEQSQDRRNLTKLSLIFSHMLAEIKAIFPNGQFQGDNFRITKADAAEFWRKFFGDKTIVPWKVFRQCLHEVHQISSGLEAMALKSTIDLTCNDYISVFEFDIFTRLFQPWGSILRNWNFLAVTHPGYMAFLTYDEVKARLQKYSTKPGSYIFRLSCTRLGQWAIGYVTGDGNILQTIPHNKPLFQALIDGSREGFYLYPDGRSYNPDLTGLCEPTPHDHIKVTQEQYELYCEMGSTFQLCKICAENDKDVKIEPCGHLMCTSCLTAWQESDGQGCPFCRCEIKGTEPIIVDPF

For the molecule `CC(C)[C@H]1CNCCN1Cc1cc2c(c(C(F)(F)F)c1)CN(c1cccc(C3([C@@H](F)c4nncn4C)COC3)c1)C2=O` [Compound 96, 2-(3-(3((R)-fluoro(4-methyl-4H-1,2,4-triazol-3-yl)methyl)oxetan-3-yl)phenyl)-6-(((S)-2-isopropylpiperazin-1-yl)methyl)-4-(trifluoromethyl)isoindolin-1-one], on c-Cbl, the midpoint of inhibition, the IC50, lay at 18 nM and the “(fold-selectivity)” value is 1.5x. Besides, at Cbl-b, the IC50 (in general, the point on the concentration scale where inhibition reaches its midpoint) was 12 nM.
Taken in the same sequence, the figures for `Cn1cnnc1[C@@H](F)C1(c2cccc(NC(=O)c3cc(CN4CC(C)(CO)C4)cc(C4CC4)n3)c2)CC(F)(F)C1` [Compound 423, (S)-6-cyclopropyl-N-(3-(3,3-difluoro-1-(fluoro(4-methyl-4H-1,2,4-triazol-3-yl)methyl)cyclobutyl)phenyl)-4-((3-(hydroxymethyl)-3-methylazetidin-1-yl)methyl)picolinamide] were 23 nM, “(1.0x)” and 23 nM.
On to `Cn1cnnc1C(F)(F)C1(c2cccc(N3Cc4c(cccc4C(F)(F)F)C3=O)c2)CC1` [Compound 49, 2-(3-(1-(difluoro(4-methyl-4H-1,2,4-triazol-3-yl)methyl)-cyclopropyl)phenyl)-4-(trifluoromethyl)isoindolin-1-one], for which, on c-Cbl, the IC50 is 2800 nM and the “(fold-selectivity)” value is 2.0x. 1400 nM corresponded to half-maximal inhibition against Cbl-b (IC50).
Consider `Cn1cnnc1CC1(c2cc(NCC3CCNCC3)nc(N3Cc4c(cc(CNC5(C)CCC5)cc4C(F)(F)F)C3=O)c2)CCC1` [Compound 339, 2-(4-(1-((4-methyl-4H-1,2,4-triazol-3-yl)methyl)cyclobutyl)-6-((piperidin-4-ylmethyl)amino)pyridin-2-yl)-6-(((1-methylcyclobutyl)amino)methyl)-4-(trifluoromethyl)isoindolin-1-one], for which, on c-Cbl, the midpoint of inhibition, the IC50, lay at 360 nM and the “(fold-selectivity)” value is “(0.68x)”. It took 530 nM to reach half-maximal inhibition on Cbl-b (IC50).
Consider `Cn1cnnc1C(F)(F)C1(c2cccc(N3Cc4c(cc(CN)cc4C(F)(F)F)C3=O)c2)CC(F)(F)C1` [Compound 399, 6-(aminomethyl)-2-(3-(1-(difluoro(4-methyl-4H-1,2,4-triazol-3-yl)methyl)-3,3-difluorocyclobutyl)phenyl)-4-(trifluoromethyl)isoindolin-1-one], for which, on c-Cbl, the IC50 was determined as 430 nM and the “(fold-selectivity)” value is “(0.84x)”. Moreover, the 50% inhibitory concentration (IC50) against Cbl-b turned out to be 510 nM.
The like results for `Cn1cnnc1[C@@H](F)C1(c2cccc(N3Cc4c(cc(CN5CCC56COC6)cc4C(F)(F)F)C3=O)c2)COC1` [Compound 176, (S)-6-(6-oxa-1-azaspiro[3.3]heptan-1-ylmethyl)-2-(3-(3-(fluoro(4-methyl-4H-1,2,4-triazol-3-yl)methyl)oxetan-3-yl)phenyl)-4-(trifluoromethyl)isoindolin-1-one] were, in that order, 1300 nM, 3.5x and 350 nM.
In the case of `Cn1cnnc1[C@H](F)C1(c2cccc(N3Cc4c(cc(CN5CC6(CC6)C5)cc4C(F)(F)F)C3=O)c2)COC1` [Compound 78, (R)-6-((5-azaspiro[2.3]hexan-5-yl)methyl)-2-(3-(3-(fluoro(4-methyl-4H-1,2,4-triazol-3-yl)methyl)oxetan-3-yl)phenyl)-4-(trifluoromethyl)isoindolin-1-one], the 50% inhibitory concentration (IC50) is 79 nM at c-Cbl and 53 nM at Cbl-b. For the same molecule, the “(fold-selectivity)” value at c-Cbl is recorded as 1.5x.
Turning to `CC(C)N(C)Cc1cc2c(c(C(F)(F)F)c1)CN(c1cccc(C3(Cc4nncn4C)CC(F)(F)C3)c1)C2=O` [Compound 416, 2-(3-(3,3-difluoro-1-((4-methyl-4H-1,2,4-triazol-3-yl)methyl)cyclobutyl)phenyl)-6-((isopropyl(methyl)amino)methyl)-4-(trifluoromethyl)isoindolin-1-one], on c-Cbl, 110 nM corresponded to half-maximal inhibition (IC50) and the “(fold-selectivity)” value was “(1.2x)”. At Cbl-b, the IC50 turned out to be 92 nM.
`Cn1cnnc1CC1(c2cccc(N3Cc4c(cc(CNC(C)(C)C)cc4C(F)(F)F)C3=O)c2)CC(F)(F)C1` [Compound 283, 6-((tert-butylamino)methyl)-2-(3-(3,3-difluoro-1-((4-methyl-4H-1,2,4-triazol-3-yl)methyl)cyclobutyl)phenyl)-4-(trifluoromethyl)isoindolin-1-one]: at c-Cbl, 57 nM corresponded to half-maximal inhibition (IC50) and the “(fold-selectivity)” value was “(1.1x)”. In addition, it took 53 nM to reach half-maximal inhibition on Cbl-b (IC50).
Taken in the same sequence, the figures for `Cn1cnnc1CC1(c2cc(CCc3ccccc3)nc(N3Cc4c(cc(CNC5(C)CCC5)cc4C(F)(F)F)C3=O)c2)CCC1` [Compound 325, 2-(4-(1-((4-methyl-4H-1,2,4-triazol-3-yl)methyl)cyclobutyl)-6-phenethylpyridin-2-yl)-6-(((1-methylcyclobutyl)amino)methyl)-4-(trifluoromethyl)isoindolin-1-one] were 41 nM, “(0.87x)” and 47 nM.
With `Cn1cnnc1[C@H](F)C1(c2cccc(N3Cc4c(cc(Oc5cn[nH]c5)cc4C(F)(F)F)C3=O)c2)COC1` [Compound 116, (R)-6-((1H-pyrazol-4-yl)oxy)-2-(3-(3-(fluoro(4-methyl-4H-1,2,4-triazol-3-yl)methyl)oxetan-3-yl)phenyl)-4-(trifluoromethyl)isoindolin-1-one], at c-Cbl, the concentration for half-maximal inhibition (IC50) came to 330 nM and the “(fold-selectivity)” value came out at 1.1x. The IC50 against Cbl-b is 310 nM.
On to `Cn1cnnc1CC1(c2cccc(N3Cc4c(cc(CN5CCN[C@@H](C6CC6)C5)cc4C(F)(F)F)C3=O)c2)CC(F)(F)C1` [Compound 431, (S)-6-((3-cyclopropylpiperazin-1-yl)methyl)-2-(3-(3,3-difluoro-1-((4-methyl-4H-1,2,4-triazol-3-yl)methyl)cyclobutyl)phenyl)-4-(trifluoromethyl)isoindolin-1-one], for which, at c-Cbl, half-maximal inhibition (IC50) was put at 42 nM and the “(fold-selectivity)” value is listed as “(0.87x)”. At Cbl-b, the half-maximal inhibitory concentration (IC50) was found to be 48 nM.
The like results for `CO[C@H]1CCN(Cc2cc3c(c(C(F)(F)F)c2)CN(c2cccc(C4([C@@H](F)c5nncn5C)COC4)c2)C3=O)C1` [Compound 131, 2-(3-(3-((R)-fluoro(4-methyl-4H-1,2,4-triazol-3-yl)methyl)oxetan-3-yl)phenyl)-6-(((S)-3-methoxypyrrolidin-1-yl)methyl)-4-(trifluoromethyl)isoindolin-1-one] were, in that order, 170 nM, 2.9x and 59 nM.
The like results for `Cn1cnnc1[C@@H](F)C1(c2cccc(N3Cc4c(cc(CN5CCC5)cc4C(F)(F)F)C3=O)c2)COC1` [Compound 71, (S)-6-(azetidin-1-ylmethyl)-2-(3-(3-(fluoro(4-methyl-4H-1,2,4-triazol-3-yl)methyl)oxetan-3-yl)phenyl)-4-(trifluoromethyl)isoindolin-1-one] were, in that order, 400 nM, 1.7x and 240 nM.
The like results for `CC1CN(Cc2cc3c(c(C(F)(F)F)c2)CN(c2cccc(C4([C@H](F)c5nncn5C)COC4)c2)C3=O)CCCO1` (stereo partly drawn) [Compound 120, 2-(3-(3-((S)-fluoro(4-methyl-4H-1,2,4-triazol-3-yl)methyl)oxetan-3-yl)phenyl)-6-((2-methyl-1,4-oxazepan-4-yl)methyl)-4-(trifluoromethyl)isoindolin-1-one] were, in that order, 44 nM, 1.2x and 36 nM.
For `COC[C@H]1CCCN1Cc1cc2c(c(C(F)(F)F)c1)CN(c1cccc(C3([C@@H](F)c4nncn4C)COC3)c1)C2=O` [Compound 155, 2-(3-(3-((R)-fluoro(4-methyl-4H-1,2,4-triazol-3-yl)methyl)oxetan-3-yl)phenyl)-6-(((R)-2-(methoxymethyl)pyrrolidin-1-yl)methyl)-4-(trifluoromethyl)isoindolin-1-one], on c-Cbl, the half-maximal inhibitory concentration (IC50) stood at 240 nM and the “(fold-selectivity)” value is recorded as 1.8x. Moreover, at Cbl-b, inhibition was half-maximal at 130 nM (IC50).
Taken in the same sequence, the figures for `Cn1cnnc1C(F)(F)C1(c2cccc(N3Cc4c(cc(CNC5(C)CCC5)cc4C(F)(F)F)C3=O)c2)CCC1` [Compound 235, 2-(3-(1-(difluoro(4-methyl-4H-1,2,4-triazol-3-yl)methyl)cyclobutyl)phenyl)-6-(((1-methylcyclobutyl)amino)methyl)-4-(trifluoro-methyl)isoindolin-1-one] were 21 nM, “(1.4x)” and 15 nM.
For `Cn1cnnc1CC1(c2cccc(N3Cc4c(Cl)cc(CNC5(C)CCC5)cc4C3=O)c2)CC(F)(F)C1` [Compound 252, 4-chloro-2-(3-(3,3-difluoro-1-((4-methyl-4H-1,2,4-triazol-3-yl)-methyl)cyclobutyl)phenyl)-6-(((1-methylcyclobutyl)amino)methyl)isoindolin-1-one formate], the IC50 against c-Cbl is 11 nM; against Cbl-b it was 13 nM.
For `Cn1cnnc1[C@H](F)C1(c2cccc(N3Cc4c(cc(CN5CC(C)(CF)C5)cc4C(F)(F)F)C3=O)c2)COC1` [Compound 76, (R)-2-(3-(3-(fluoro(4-methyl-4H-1,2,4-triazol-3-yl)methyl)oxetan-3-yl)phenyl)-6-((3-(fluoromethyl)-3-methylazetidin-1-yl)methyl)-4-(trifluoromethyl)isoindolin-1-one], at c-Cbl, 82 nM corresponded to half-maximal inhibition (IC50) and the “(fold-selectivity)” value was 1.6x. The same molecule showed an IC50 on Cbl-b of 52 nM.
Take `Cn1cnc(CNc2cc(C3(Cc4nncn4C)CCC3)cc(N3Cc4c(cc(CNC5(C)CCC5)cc4C(F)(F)F)C3=O)n2)c1` [Compound 320, 2-(6-(((1-methyl-1H-imidazol-4-yl)methyl)amino)-4-(1-((4-methyl-4H-1,2,4-triazol-3-yl)methyl)cyclobutyl)pyridin-2-yl)-6-(((1-methylcyclobutyl)amino)methyl)-4-(trifluoromethyl)isoindolin-1-one]: the half-inhibitory concentration (IC50) was found to be 51 nM at c-Cbl and 21 nM against Cbl-b. The “(fold-selectivity)” value on c-Cbl is reported as “(2.4x)”.
